Structures are written as SMILES.

Data set [1] concerns the target T1, 5-HT1D (Homo sapiens, UniProt P28221).
T1 construct: expressed in transfected cells
Description: Binding affinity at cloned human serotonin receptors.

The target of data set [2] is T2, 5-HT1E (Homo sapiens, UniProt P28566).
T2 construct: expressed in transfected cells
Described as above.

For data set [3], the target named is T3, 5-HT1B (Homo sapiens, UniProt P28222).
T3 construct: expressed in transfected cells
The description is as above.

Data set [4] concerns the target T4, 5-HT1F (Homo sapiens, UniProt P30939).
T4 construct: expressed in transfected cells
T4 sequence (P30939 1-366): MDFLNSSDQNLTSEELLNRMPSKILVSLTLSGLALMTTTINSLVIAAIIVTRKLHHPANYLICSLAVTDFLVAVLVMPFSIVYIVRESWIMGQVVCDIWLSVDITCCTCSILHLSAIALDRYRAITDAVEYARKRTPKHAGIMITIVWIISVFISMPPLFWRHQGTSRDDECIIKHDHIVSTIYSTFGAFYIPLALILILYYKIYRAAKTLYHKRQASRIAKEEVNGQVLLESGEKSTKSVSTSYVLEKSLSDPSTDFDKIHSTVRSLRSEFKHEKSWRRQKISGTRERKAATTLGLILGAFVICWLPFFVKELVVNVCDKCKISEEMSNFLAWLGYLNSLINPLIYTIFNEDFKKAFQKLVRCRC
The description is as above.

In data set [5] the target is T5, 5-HT7 (Homo sapiens, UniProt P34969).
T5 construct: expressed in transfected cells
T5 sequence (P34969 whole entry): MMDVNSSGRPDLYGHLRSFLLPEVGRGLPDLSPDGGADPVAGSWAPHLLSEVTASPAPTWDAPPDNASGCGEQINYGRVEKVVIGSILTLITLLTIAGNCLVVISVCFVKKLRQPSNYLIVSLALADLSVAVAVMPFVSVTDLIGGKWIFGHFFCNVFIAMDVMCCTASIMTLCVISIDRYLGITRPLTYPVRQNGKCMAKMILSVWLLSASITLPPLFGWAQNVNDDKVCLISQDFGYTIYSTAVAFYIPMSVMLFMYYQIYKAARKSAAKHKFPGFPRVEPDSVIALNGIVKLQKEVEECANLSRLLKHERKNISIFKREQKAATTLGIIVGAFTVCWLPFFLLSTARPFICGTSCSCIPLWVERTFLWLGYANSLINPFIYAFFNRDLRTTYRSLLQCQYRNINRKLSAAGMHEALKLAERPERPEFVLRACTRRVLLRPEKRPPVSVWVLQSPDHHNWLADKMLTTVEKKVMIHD
Described as above.

Data set [6] deals with T6, 5-HT1A (Homo sapiens, UniProt P08908).
T6 construct: expressed in transfected cells
T6 sequence (P08908 1-422): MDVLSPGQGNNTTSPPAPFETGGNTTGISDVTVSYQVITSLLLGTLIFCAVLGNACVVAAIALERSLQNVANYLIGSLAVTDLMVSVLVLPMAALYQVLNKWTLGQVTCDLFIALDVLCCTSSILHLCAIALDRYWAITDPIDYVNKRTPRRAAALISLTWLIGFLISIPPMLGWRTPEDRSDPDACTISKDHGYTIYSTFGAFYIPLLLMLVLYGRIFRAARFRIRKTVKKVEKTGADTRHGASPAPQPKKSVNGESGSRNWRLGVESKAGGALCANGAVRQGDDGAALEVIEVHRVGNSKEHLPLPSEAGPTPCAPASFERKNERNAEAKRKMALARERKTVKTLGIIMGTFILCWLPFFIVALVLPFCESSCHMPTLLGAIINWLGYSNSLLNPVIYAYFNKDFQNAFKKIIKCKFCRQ
The description is as above.

For data set [7], the system named is Adult female cats. Nature of the data set: Transvesical cystometrograms and periurethral EMG in anesthetized cats, acetic acid infusion.
Description: Adult female cats were anesthetized with alpha chloralose (50-75 mg/kg i.v.) One catheter was inserted into the carotid artery for measuring systemic blood pressure and heart rate. A second catheter was inserted in the radial vein for administering drugs. Following a midline laparotomy, the bladder was cannulated through the dome to allow infusion of fluids and recording of intravesical pressure. The urethra remained patent to allow expulsion of fluids during reflex micturition.
Transvesical cystometrograms (CMGs) were recorded by emptying the bladder, beginning infusion (0.5 ml/min) with saline, and noting the volume at which fluid release and bladder contraction occurred (i.e. micturition). This volume is defined as bladder capacity. EMG activity was recorded from the periurethral musculature with bipolar hook electrodes placed within 0.5 cm of the urethral meatus via an intravaginal approach. After establishing bladder capacity and EMG activity under conditions of saline infusion, the infusion cannula was switched to infuse 0.5% acetic acid solution and cystometry repeated.
Following cystometry, the bladder was allowed to continuously fill, which produced rhythmic bladder contractions accompanied by fluid release. During this time of rhythmic bladder activity, vehicle or drug was administered. Within 5 minutes, the bladder was emptied; another CMG was performed, and bladder capacity and EMG activity were again measured. The bladder was then continuously filled to produce rhythmic contractions with fluid release, and the frequency of these rhythmic contractions was measured over a fifteen minute period to record drug effects on contraction frequency. This procedure was repeated with increasing doses of drug to produce a cumulative dose response curve.
All other drugs were dissolved in saline.
In data set [8] the target is T4, 5-HT1F. Description: Functional data in cloned human serotonin receptors. The data set is classed as biochemical.
Data set [9] addresses T6, 5-HT1A. The description is as above. The data set is classed as biochemical.
Data set [10] addresses T3, 5-HT1B. Described as above. Type of data set: biochemical.
Data set [11] has as its target T1, 5-HT1D. Described as above. The data set is classed as biochemical.
Setting [12] is: anesthetized cat, i.v., cumulative doses, acetic acid infusion.
Where [13] appears, read: listed as compound of formula I.
[14] abbreviates: vs 1-(2-p-methanesulfonamidophenylethyl)-4-(m-trifluoromethylphenyl)piperazine.

T3 sequence (P28222 whole entry): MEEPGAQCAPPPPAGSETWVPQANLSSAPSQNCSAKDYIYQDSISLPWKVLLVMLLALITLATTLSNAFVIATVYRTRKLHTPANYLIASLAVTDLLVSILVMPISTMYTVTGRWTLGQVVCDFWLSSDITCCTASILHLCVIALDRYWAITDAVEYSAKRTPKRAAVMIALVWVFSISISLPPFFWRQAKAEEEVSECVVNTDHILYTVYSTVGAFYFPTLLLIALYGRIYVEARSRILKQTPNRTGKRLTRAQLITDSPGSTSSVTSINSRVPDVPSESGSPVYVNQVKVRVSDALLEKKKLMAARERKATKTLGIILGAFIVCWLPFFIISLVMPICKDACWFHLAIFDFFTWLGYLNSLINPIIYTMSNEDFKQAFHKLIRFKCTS
T1 sequence (P28221 whole entry): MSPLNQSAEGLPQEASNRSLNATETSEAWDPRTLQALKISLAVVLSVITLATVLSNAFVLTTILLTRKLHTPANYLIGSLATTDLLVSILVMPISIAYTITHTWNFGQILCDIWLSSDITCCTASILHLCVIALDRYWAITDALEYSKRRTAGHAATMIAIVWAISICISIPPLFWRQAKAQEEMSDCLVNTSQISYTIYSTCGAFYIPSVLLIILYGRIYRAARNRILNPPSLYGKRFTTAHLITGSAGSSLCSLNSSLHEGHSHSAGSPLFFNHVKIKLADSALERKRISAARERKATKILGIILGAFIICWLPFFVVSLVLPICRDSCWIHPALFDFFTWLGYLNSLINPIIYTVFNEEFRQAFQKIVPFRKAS
T2 sequence (P28566 whole entry): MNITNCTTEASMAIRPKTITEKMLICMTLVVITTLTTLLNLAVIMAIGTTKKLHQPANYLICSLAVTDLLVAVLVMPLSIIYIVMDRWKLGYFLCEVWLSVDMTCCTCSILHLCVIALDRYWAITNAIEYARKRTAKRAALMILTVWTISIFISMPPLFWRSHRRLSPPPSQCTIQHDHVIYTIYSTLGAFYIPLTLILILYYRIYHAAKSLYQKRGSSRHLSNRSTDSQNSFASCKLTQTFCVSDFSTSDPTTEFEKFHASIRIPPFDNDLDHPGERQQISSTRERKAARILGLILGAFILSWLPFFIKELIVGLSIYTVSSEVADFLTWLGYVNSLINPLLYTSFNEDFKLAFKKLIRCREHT

`CS(=O)(=O)Nc1cccc(CCN2CCN(c3cccc(C(F)(F)F)c3)CC2)c1.O=C(O)C(=O)O` returned a melting point of 164 °C.
Same read-out and setting: the result for `CS(=O)(=O)Nc1cccc(CCN2CCN(c3cccc(C(F)(F)F)c3)CC2)c1.Cl` reads 198 to 199 °C.
On to `CS(=O)(=O)Nc1ccc(CCN2CCN(c3cccc(C(F)(F)F)c3)CC2)cc1` [1-(2-p-methanesulfonamidophenylethyl)-4-(m-trifluoromethylphenyl)piperazine, reference compound], for which the Ki in [1] was found to be 0.0553 µM; in [3] it was 0.00949 µM; in data set [5], 0.045 µM; in data set [6], 0.00345 µM. The “% displacement, 5-HT1E” value in data set [2] (@ 1000 nM) was found to be 5% @ 1000. Also, in data set [4] (@ 1000 nM), the “% displacement, 5-HT1F” value is 14% @ 1000.
Turning to `COc1ccc(CNC(=O)/C=C/c2ccc3[nH]cc(CCN(C)C)c3c2)cc1` [GR46611, reference compound], in data set [7] (setting [12]), the bladder capacity entry is listed as “dose-dependent increases”, the “external urethral sphincter (EUS) EMG activity” value (“external urethral sphincter” for short) was “increase” and the “frequency of micturition contractions” value is given as “reduced”.
Consider `COc1ccc(NC(=O)c2ccc(-c3ccc(-c4noc(C)n4)cc3C)cc2)cc1N1CCN(C)CC1` [GR127935, reference compound], for which, in data set [7] (setting [12]), the bladder capacity entry is listed as “dose-dependent increases”, the “external urethral sphincter” value is reported as “increase” and the “frequency of micturition contractions” value is “reduced”.
`CS(=O)(=O)Nc1cccc(CCN2CCN(c3cccc(C(F)(F)F)c3)CC2)c1` [LY217101, 1-(2-m-methanesulfonamidophenylethyl)-4-(m-trifluoromethylphenyl)piperazine]: the Emax in [8] came out at 95.5%; in [10], 88.2%; in data set [11], 93.4%. Also, the “functional character at 5-HT1A” value in [9] (listed as Formula 1) is “Agonist”; in [9] (setting [13]), “agonist”. In [7] (LY217101 given after WAY100635), the EMG activity entry was “no longer produces”. The bladder capacity result in [7] (LY217101 given after WAY100635) is reported as “increase”; in data set [7] (setting [12]), “dose-dependent increases”. Further, the bradycardia result in data set [7] (LY217101 given after WAY100635) was “no longer produces”; in data set [7] (anesthetized cat, i.v.) it was “induced”. The entries for the “frequency of micturition contractions” value in data set [7] (LY217101 given after WAY100635) and in [7] (setting [12]) were “continued to reduce” and “reduced”, respectively. Also, the hypotension result in [7] (LY217101 given after WAY100635) is given as “no longer produces”; in data set [7] (anesthetized cat, i.v.) it was “induced”. Besides, in [7] (setting [12]), the “external urethral sphincter” value was “increase”. Besides, the Ki in data set [1] is 0.0012 µM; in [2], 3.88 µM; in data set [3], 0.0017 µM; in data set [4], 0.0323 µM; in data set [5], 0.104 µM; in data set [6], 0.00095 µM. Moreover, the “fold higher affinity for the 5-HT1D receptor than the p-regioisomer” value in [1] (setting [14]) turned out to be 45 fold. For the same compound, in [3] (setting [14]), the “fold higher affinity for the 5-HT1B receptor than the p-regioisomer” value turned out to be 56 fold. Also, the “functional character at 5-HT1B” value in [10] (listed as Formula 1) was “Agonist”; in [10] (setting [13]) it was “agonist”. Also, the entries for the “functional character at 5-HT1D” value in data set [11] (listed as Formula 1) and in [11] (setting [13]) were “Agonist” and “agonist”, respectively.
Consider `COc1ccccc1N1CCN(CCN(C(=O)C2CCCCC2)c2ccccn2)CC1` [WAY100635, reference compound], for which, in data set [7] (anesthetized cat, WAY100635 given after compound of Formula I), the “reversal of hypotension, bradycardia, decrease in contraction frequency and increase in EMG activity induced by the compound of Formula I” value is “partially reversed”.
For the compound `CN(C)CCc1c[nH]c2ccc(C[C@H]3COC(=O)N3)cc12` [zolmitriptan, reference compound], in data set [7] (setting [12]), the bladder capacity entry was “dose-dependent increases”, the “external urethral sphincter” value is recorded as “increase” and the “frequency of micturition contractions” value is given as “reduced”.

As a reminder, the melting point is the temperature of the solid-liquid transition. As a reminder, the Ki is a measure of affinity in units of concentration, obtained from inhibition or displacement. Lower therefore signals tighter binding. As usually defined, the Emax is the maximal effect, on the per cent scale that the assay sets.
